One assay addresses T1, TLR8 (Homo sapiens, UniProt Q9NR97).
T1 construct: Human peripheral blood mononuclear cells (PBMCs) consist of lymphocytes, monocytes and dendritic cells that express TLR7, TLR8 and TLR9; endogenous in cells; host or cells: cryopreserved human PBMCs from healthy donors
T1 sequence (Q9NR97 27-1041): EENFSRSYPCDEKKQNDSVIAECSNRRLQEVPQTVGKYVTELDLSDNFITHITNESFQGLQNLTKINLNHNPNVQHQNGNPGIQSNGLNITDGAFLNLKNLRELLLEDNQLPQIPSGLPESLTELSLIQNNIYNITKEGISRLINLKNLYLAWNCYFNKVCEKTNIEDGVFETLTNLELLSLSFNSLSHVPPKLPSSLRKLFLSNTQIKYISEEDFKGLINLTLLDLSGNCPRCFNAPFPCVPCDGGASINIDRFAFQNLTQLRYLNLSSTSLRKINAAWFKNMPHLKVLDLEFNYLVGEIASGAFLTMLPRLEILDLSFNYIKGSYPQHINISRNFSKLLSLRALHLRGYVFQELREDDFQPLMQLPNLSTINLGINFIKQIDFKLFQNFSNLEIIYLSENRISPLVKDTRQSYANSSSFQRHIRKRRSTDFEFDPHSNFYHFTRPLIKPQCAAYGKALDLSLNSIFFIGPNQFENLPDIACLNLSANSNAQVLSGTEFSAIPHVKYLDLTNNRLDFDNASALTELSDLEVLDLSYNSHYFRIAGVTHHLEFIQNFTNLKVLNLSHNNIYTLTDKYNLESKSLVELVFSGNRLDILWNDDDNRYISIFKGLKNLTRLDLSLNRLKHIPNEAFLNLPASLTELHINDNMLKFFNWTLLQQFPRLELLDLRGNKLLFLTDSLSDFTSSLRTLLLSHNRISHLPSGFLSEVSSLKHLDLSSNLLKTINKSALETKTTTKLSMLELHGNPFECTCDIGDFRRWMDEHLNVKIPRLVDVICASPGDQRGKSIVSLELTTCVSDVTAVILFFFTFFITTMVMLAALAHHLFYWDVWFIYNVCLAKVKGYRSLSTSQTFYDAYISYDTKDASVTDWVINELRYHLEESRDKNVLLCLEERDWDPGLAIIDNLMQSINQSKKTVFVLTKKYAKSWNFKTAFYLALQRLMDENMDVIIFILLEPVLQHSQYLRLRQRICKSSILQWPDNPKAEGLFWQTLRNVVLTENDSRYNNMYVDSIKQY
The experiment in a line: TLR8 human PBMC cell-based assay (antagonist, Compound A stimulated cytokine release). As to conditions: human PBMCs; TLR8 agonist Compound A 800 nM, 6 hours; cytokines (TNFa and IL 12p40) in supernatant; read-out: TLR-8 EC50. The method, boiled down:
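Cryopreserved donor PBMCs (100,000/well, RPMI + 10% FBS) were preincubated 1 h with antagonist (10-point dose response, quadruplicate), then stimulated with Compound A (800 nM final) for 6 h at 37 °C. TNFa and IL-12p40 in supernatants were measured by electrochemiluminescence; sigmoidal fits gave EC50.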

Another assay has as its target T2, TLR7 (Homo sapiens, UniProt Q9NYK1).
T2 construct: Human peripheral blood mononuclear cells (PBMCs) consist of lymphocytes, monocytes and dendritic cells that express TLR7, TLR8 and TLR9; endogenous in cells; host or cells: cryopreserved human PBMCs from healthy donors
T2 sequence (Q9NYK1 27-1049): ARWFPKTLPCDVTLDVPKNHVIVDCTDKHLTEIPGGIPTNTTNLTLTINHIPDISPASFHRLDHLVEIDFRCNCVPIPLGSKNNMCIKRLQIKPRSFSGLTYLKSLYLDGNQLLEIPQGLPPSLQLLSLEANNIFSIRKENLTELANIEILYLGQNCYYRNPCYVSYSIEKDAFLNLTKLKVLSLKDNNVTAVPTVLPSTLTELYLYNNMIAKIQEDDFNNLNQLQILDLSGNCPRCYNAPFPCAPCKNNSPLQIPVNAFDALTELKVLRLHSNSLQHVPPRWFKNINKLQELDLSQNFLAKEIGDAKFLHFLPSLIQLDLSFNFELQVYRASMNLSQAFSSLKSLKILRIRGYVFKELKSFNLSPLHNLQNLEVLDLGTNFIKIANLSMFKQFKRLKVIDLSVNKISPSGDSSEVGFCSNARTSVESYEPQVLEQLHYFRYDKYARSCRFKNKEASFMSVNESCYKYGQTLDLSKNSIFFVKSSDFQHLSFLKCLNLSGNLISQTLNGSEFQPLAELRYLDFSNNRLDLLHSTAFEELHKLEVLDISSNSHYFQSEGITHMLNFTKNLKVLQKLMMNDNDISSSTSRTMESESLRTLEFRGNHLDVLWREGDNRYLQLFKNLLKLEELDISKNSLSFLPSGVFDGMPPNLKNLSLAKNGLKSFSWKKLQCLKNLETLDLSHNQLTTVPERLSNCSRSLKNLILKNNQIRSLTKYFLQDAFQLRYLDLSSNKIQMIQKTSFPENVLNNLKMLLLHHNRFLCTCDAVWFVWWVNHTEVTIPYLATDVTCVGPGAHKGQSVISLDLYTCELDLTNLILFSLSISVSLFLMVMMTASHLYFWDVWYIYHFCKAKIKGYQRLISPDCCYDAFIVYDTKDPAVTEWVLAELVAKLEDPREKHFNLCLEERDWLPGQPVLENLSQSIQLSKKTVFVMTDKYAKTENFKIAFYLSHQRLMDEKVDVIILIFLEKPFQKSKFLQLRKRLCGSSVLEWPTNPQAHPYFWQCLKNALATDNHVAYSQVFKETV
Description: TLR7 human PBMC cell-based assay (antagonist, GS-986 stimulated cytokine release). To be noted: human PBMCs; TLR7 agonist GS-986 400 nM, 6 hours; cytokines (IL-6 and IFNα) in supernatant; read-out: TLR-7 EC50. The method, boiled down: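 EC50 derived by sigmoidal fitting of IL-6 and IFNα levels, quantified by electrochemiluminescence in supernatants of human PBMCs given 400 nM GS-986 for 6 h. Cells (100,000/well in RPMI-1640, 10% FBS) had received test antagonist 1 h beforehand, 10 doses in quadruplicate, at 37 °C.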

For the molecule `Cc1c(-c2[nH]c3cc(C(=O)N(C)[C@@H]4CNC[C@H](C(F)(F)F)C4)sc3c2C(C)C)cn2ncnc2c1C` [Example 273, 5-(7,8-dimethyl-[1,2,4]triazolo[1,5-a]pyridin-6-yl)-6-isopropyl-N-methyl-N-((3S,5R)-5-(trifluoromethyl)piperidin-3-yl)-4H-thieno[3,2-b]pyrrole-2-carboxamide], the results for the EC50 at TLR8 and at TLR7 were 9.7 nM and 9.8 nM, respectively.
For the molecule `Cc1c(-c2[nH]c3cc(CN4CCC(C)(O)CC4)sc3c2C(C)C)cn2ncnc2c1C` [Example 266], the EC50 on TLR8 is 1.2 nM; on TLR7 it was 2.3 nM.
As to `Cc1cc(-c2[nH]c3cc(C(=O)N4CC5(CNC5)C4)sc3c2C(C)C)cc(C)n1` [Example 24], the EC50 on TLR8 is 408 nM; at TLR7 it was 504 nM.
On to `Cc1cc(-c2[nH]c3cc(C(=O)N4C5CNCC4C5)sc3c2C(C)C)cc(C)n1` [Example 19], for which the results for the EC50 at TLR8 and at TLR7 were 53.7 nM and 77.7 nM, respectively.
For `Cc1cc(-c2[nH]c3cc(C4=NC5(CCN(CC(N)=O)CC5)CO4)sc3c2C(C)C)cn2ncnc12` [Example 165], the EC50 at TLR8 was determined as 116 nM; at TLR7, 1.7 nM.
The like results for `Cc1cc(-c2[nH]c3cc(-c4nnc(N5CCNCC5)o4)sc3c2C(C)C)cc(C)n1` [Example 53] were, in that order, 16 nM and 74.7 nM.
`Cc1cc(-c2[nH]c3cc(C4CCC5(CC4)CN(CC(N)=O)C5)sc3c2C(C)C)cn2ncnc12` [Example 177]: the results for the EC50 on TLR8 and at TLR7 were 1 nM and 0.2 nM, respectively.
With `Cc1cc(-c2[nH]c3cc(C(=O)C4CCNCC4)sc3c2C(C)C)cn2ncnc12` [Example 277, (6-isopropyl-5-(8-methyl-[1,2,4]triazolo[1,5-a]pyridin-6-yl)-4H-thieno[3,2-b]pyrrol-2-yl)(piperidin-4-yl)methanone], the EC50 on TLR8 turned out to be 6.1 nM; on TLR7, 0.4 nM.
Regarding `Cc1cc(-c2[nH]c3cc(C(=O)N(C)[C@@H]4CNC[C@@H]4F)sc3c2C(C)C)cn2ncnc12` [Example 57], the EC50 at TLR8 was found to be 12.7 nM; on TLR7 it was 1.7 nM.
With `Cc1cc(-c2[nH]c3cc(C(=O)N(C)[C@@H]4CCN(C5CCC5)C[C@@H]4F)sc3c2C(C)C)cn2ncnc12` [Example 83], the results for the EC50 at TLR8 and at TLR7 were 17.7 nM and 17.8 nM, respectively.
On to `Cc1cc(-c2[nH]c3cc(C(=O)N4CC5CC(C4)N5)sc3c2C(C)C)cc(C)n1` [Example 18], for which the figures for the EC50 on TLR8 and at TLR7 were 67.2 nM and 200 nM, respectively.
Turning to `CCN(C(=O)c1cc2[nH]c(-c3cc(C)c4ncnn4c3)c(C(C)C)c2s1)C1CCNCC1` [Example 135], the figures for the EC50 at TLR8 and on TLR7 were 9.9 nM and 0.4 nM, respectively.
Regarding `Cc1cc(-c2[nH]c3cc(C(=O)N4CCn5c(nnc5C(F)(F)F)C4)sc3c2C(C)C)cn2ncnc12` [Example 118], the EC50 at TLR8 amounted to 47.8 nM; on TLR7 it was 18.9 nM.
Taken in the same sequence, the figures for `Cc1cc(-c2[nH]c3cc(C(=O)N(C)[C@@H]4CCNC[C@@H]4F)sc3c2C(C)C)cn2ncnc12` [Example 79] were 9.1 nM and 0.3 nM.
Take `CC(C)c1c(-c2ccc3nccn3c2)[nH]c2cc(C(=O)N3CCNCC3)sc12` [Example 67]: the results for the EC50 on TLR8 and on TLR7 were 131 nM and 6.3 nM, respectively.
With `Cc1cc(-c2[nH]c3cc(C(=O)N4CCC5CC5(N)C4)sc3c2C(C)C)cc(C)n1` (stereo not drawn) [Example 31], the EC50 at TLR8 was determined as 68 nM; on TLR7, 40.6 nM.
For the molecule `Cc1cc(-c2[nH]c3cc(C4CCN(C(=O)C5CNC5)CC4)sc3c2C(C)C)cn2ncnc12` [Example 202], the EC50 on TLR8 turned out to be 23.8 nM; at TLR7 it was 1.5 nM.
For `Cc1cc(-c2[nH]c3cc(C4CCC(NC5CC6CC5O6)CC4)sc3c2C(C)C)cn2ncnc12` (stereo not drawn) [Example 261], the EC50 was determined as 9.7 nM on TLR8 and 2.2 nM on TLR7.
The like results for `Cc1cc(-c2[nH]c3cc(C4CCC5(CC4)CN(C(=O)CN4CCCC4)C5)sc3c2C(C)C)cn2ncnc12` [Example 208] were, in that order, 12.3 nM and 0.3 nM.
Turning to `Cc1cc(-c2[nH]c3cc(C(=O)N[C@H]4CCNC4)sc3c2C(C)C)cc(C)n1` [Example 6], the figures for the EC50 on TLR8 and at TLR7 were more than 1000 nM and 895 nM, respectively.
On to `Cc1cc(-c2[nH]c3cc(C(=O)N(C)CCCN(C)C)sc3c2C(C)C)cn2ncnc12` [Example 94], for which the EC50 is 4.7 nM on TLR8 and 1 nM on TLR7.
The like results for `Cc1cc(-c2[nH]c3cc(C4CC5(CCN(CC(N)=O)CC5)C4)sc3c2C(C)C)cn2ncnc12` [Example 304] were, in that order, 2.06 nM and 0.5 nM.
For the molecule `Cc1cc(-c2[nH]c3cc(C4CC5CNCC5C4)sc3c2C(C)C)cn2ncnc12` (stereo not drawn) [Example 158], the EC50 on TLR8 was determined as 12.9 nM; on TLR7, 0.2 nM.
As for `Cc1cc(-c2[nH]c3cc(C(=O)N4CC[C@@H](N(C)C)C4)sc3c2C(C)C)cn2ncnc12` [Example 144], the EC50 on TLR8 came out at 1.1 nM; at TLR7, 5.4 nM.
For the molecule `Cc1cc(-c2[nH]c3cc(C(=O)N(C)C4CCN(CC(F)F)CC4)sc3c2C(C)C)cn2ncnc12` [Example 134], the concentration for a half-maximal effect (EC50) on TLR8 came to 94.1 nM; on TLR7, 88.7 nM.
On to `Cc1cc(-c2[nH]c3cc(C(=O)N(C)[C@H]4CCNCC4(F)F)sc3c2C(C)C)cn2ncnc12` [Example 81], for which the EC50 on TLR8 is 91 nM; at TLR7, 10.3 nM.
With `CN[C@H]1CCN(C(=O)c2cc3[nH]c(-c4cc(C)c5ncnn5c4)c(C(C)C)c3s2)C1` [Example 73], the results for the 50% effective concentration (EC50) at TLR8 and at TLR7 were 1.7 nM and 4.9 nM, respectively.
Taken in the same sequence, the figures for `Cc1cc(-c2[nH]c3cc(C(=O)N4CC5(CCNCC5)C4)sc3c2C(C)C)cn2ncnc12` [Example 126] were 15.7 nM and 2.5 nM.
Take `Cc1cc(-c2[nH]c3cc(C(=O)N4CCN[C@@H](C)C4)sc3c2C(C)C)cn2ncnc12` [Example 125]: the EC50 on TLR8 is 0.3 nM; on TLR7, 1.2 nM.
`Cc1cc(-c2[nH]c3cc(-c4nc(N5CCNCC5)no4)sc3c2C(C)C)cc(C)n1` [Example 54, 5-[5-(2,6-dimethyl-4-pyridyl)-6-isopropyl-4H-thieno[3,2-b]pyrrol-2-yl]-3-piperazin-1-yl-1,2,4-oxadiazole]: the EC50 at TLR8 was 7 nM; at TLR7, 3.7 nM.

A word on the EC50: it is the concentration needed to bring the measured effect to its halfway point.

These data come from US20240217990A1 (Gilead Sciences, Inc., priority 2021, published 2024).
